Measurements: patent publication US20260365653A1, “IRREVERSIBLE MUTEGFR INHIBITORS” (Bayer Aktiengesellschaft, priority 2022, published 2026)

Columns and labels:
[1] = target: T1, mutEGFR (D770_N771insSVD) (Homo sapiens, UniProt P00533, DUP768-770); test: Exon20-Mutant-EGFR (D770_N771insSVD) kinase assay (TR-FRET); format: biochemical
T1 construct: GST-EGFR #3 (SVD between D770 and N771); made in house; host or cells: Sf9 insect cells (baculovirus)

[2] = target: T2, mutEGFR (D770_N771insNPG, T790) (Homo sapiens, UniProt P00533, INS770NPG/T790M); test: mutEGFR (D770_N771insNPG, T790) kinase assay; format: biochemical
T2 construct: exact insNPG construct not described; in-house EGFR proteins were N-terminal GST fusions from baculovirus/insect cells (borders R669-A1210 given only for WT, insSVD, insASV)
T2 sequence (P00533 with tags, fused parts or gaps INS770NPG/T790M limits assumed): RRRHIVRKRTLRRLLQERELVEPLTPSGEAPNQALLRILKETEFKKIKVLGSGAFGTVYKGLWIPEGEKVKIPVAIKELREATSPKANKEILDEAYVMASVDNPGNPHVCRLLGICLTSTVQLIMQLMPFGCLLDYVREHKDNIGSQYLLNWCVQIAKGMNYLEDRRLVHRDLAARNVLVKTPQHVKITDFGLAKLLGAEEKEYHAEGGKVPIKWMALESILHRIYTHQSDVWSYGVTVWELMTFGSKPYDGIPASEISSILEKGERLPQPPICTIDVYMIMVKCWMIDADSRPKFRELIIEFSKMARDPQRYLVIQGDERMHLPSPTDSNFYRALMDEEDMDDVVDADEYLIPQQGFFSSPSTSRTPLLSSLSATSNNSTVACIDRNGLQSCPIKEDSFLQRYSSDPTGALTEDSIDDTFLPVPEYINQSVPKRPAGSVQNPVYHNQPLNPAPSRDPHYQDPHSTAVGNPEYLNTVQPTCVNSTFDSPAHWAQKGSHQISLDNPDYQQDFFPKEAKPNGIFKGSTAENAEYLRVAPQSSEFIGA
Description: The different EGFR proteins used in the biochemical kinase activity inhibition assays were generated inhouse by expression in insect cells using Baculo Virus system and subsequent purification as described in the following paragraphs.
The cDNAs encoding the various protein sequences from human EGFR human (P00533) were optimized for expression in eukaryotic cells and synthesized by the GeneArt Technology at Life Technologies.

BA/F3 (insSVD) cells = test: Ba/F3-EGFR-insSVD cell survival assay (Cell Titer-Glo); format: cell-based
How it was run: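 CellTiter-Glo luminescence read after 48 h compound exposure at 37° C. Cells: IL-3-independent Ba/F3 lines transduced with EGFR-insSVD or EGFR-insSVD T790M, maintained on 10 ng/ml EGF and seeded at 4000 per well.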

[3] = test system: BA/F3 (EGFR D770_N771 insSVD T790M) cells; test: Ba/F3-EGFR-insSVD T790M cell survival assay (Cell Titer-Glo); format: cell-based; conditions: Ba/F3 EGFR-D770-N771ins_SVD, 48 h
Experimental: Cellular Data Description (WT, insSVD, insSVD T790M) 293T cells from ATCC were transfected with pBABEpuro expression constructs for WT EGFR or EGFR-insSVD, or EGFR-insSVD T790M, and pCL-Eco packaging vector using Fugene-6 transfection reagent from Promega. Plates were incubated at 37° C. for 48 h. Retrovirus was harvested by filtering the media supernatant through a 0.45 μm filter.
Ba/F3 cells purchased from DSMZ were grown in RPMI+10% FBS+10 ng/ml IL-3 and infected with filtered retroviral supernatant at a 1:2 dilution. Polybrene was added to a concentration of 8 μg/mL, plates were spun for 90 min, and incubated for 16 h at 37° C. 2 μg/mL puromycin was added to the infected cells 24 h after infection and cells were continually grown in the presence of puromycin and 10 ng/ml IL-3. Following stably expressing Ba/F3 cell lines were generated: Ba/F3-EGFR-WT, Ba/F3-EGFR-insSVD, Ba/F3-EGFR-insSVD T790M, (Ba/F3-vector-control).
For cell survival assays, Ba/F3 cells were grown to a density of 1-2 million cells per mL, spun down and resuspended in media without IL-3, and replated at a concentration of 200,000-500,000 cells per mL. The cells ectopically expressing WT EGFR, EGFR-insSVD, or EGFR-insSVD T790M were plated with 10 ng/ml Millipore Culture grade EGF. The cells ectopically expressing pBABEpuro empty vector were plated with 10 ng/mL IL-3.
2 days later, cells were plated in 50 µL in a 384 well plate at a concentration of 4000 cells per well for cells assayed in the absence of IL-3 and 2000 cells per well for cells assayed in the presence of IL-3. 100 nL of compound was added to each well using a 100 nL pin head, and plates were incubated at 37° C. for 48 h.
Cell viability was measured by adding 20 μL of Cell Titer-Glo Luminescent Cell Viability Reagent diluted 1:3 in PBS. Plates were sealed with Perkin Elmer Top-Seal, inverted several times to mix, and immediately centrifuged at 1000 rpm for 2 min. Plates were incubated in low light conditions for 8-10 min and luminescence was measured.

[4] = mutEGFR (D770_N771insSVD) kinase assay IC50, Table 2a, D770_N771insSVD, 2 mM ATP
[5] = Mus musculus, BaF3, 48 h, Table 3a, cell survival, Cell Titer-Glo, with 10 ng/ml EGF, without IL-3
[6] = Table 3a, cell survival, Cell Titer-Glo, with 10 ng/ml EGF, without IL-3
[7] = mutEGFR (D770_N771insSVD) kinase assay IC50, Table 2b (from US Priority Patent Application), mutEGFR D770_N771insSVD
[8] = Table 2b (from US Priority Patent Application), mutEGFR D770_N771insNPG
[9] = Mus musculus, BaF3, 48 h, Table 3b, Ba/F3 EGFR-insSVD
[10] = Table 3b, Ba/F3 EGFR-insSVD T790M

T1 sequence (P00533 with tags, fused parts or gaps DUP768-770): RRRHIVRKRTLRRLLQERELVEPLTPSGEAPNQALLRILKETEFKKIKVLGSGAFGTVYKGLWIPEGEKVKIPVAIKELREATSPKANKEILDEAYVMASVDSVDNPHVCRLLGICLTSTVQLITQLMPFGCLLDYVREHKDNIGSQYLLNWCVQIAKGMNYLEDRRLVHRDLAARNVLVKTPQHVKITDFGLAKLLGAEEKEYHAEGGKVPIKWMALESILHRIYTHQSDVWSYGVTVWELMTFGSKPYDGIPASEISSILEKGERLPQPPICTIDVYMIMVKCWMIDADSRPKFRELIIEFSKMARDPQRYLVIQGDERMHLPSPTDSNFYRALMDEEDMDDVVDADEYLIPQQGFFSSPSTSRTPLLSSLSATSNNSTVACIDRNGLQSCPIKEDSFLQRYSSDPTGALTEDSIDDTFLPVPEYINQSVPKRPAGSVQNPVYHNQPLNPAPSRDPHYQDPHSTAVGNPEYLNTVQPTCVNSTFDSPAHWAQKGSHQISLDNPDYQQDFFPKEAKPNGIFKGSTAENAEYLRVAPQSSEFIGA

Compound | IC50 [1, 4] | IC50 ([2]; Table 2a, D770_N771insNPG) | IC50 (BA/F3 (insSVD) cells; [5]) | IC50 [3, 6] | IC50 (BA/F3 (insSVD) cells; Table 3a, cell survival, Cell Titer-Glo, with 10 ng/ml EGF, without IL-3, 48 h) | IC50 [1, 7] | IC50 [2, 8] | IC50 (BA/F3 (insSVD) cells; [9]) | IC50 [3, 10]
C=CC(=O)N1Cc2c(-c3ccncc3)c(-c3ccc(F)cc3)nn2C(CO)C1 (racemic) [Example 203, 1-[(7RS)-2-(4-fluorophenyl)-7-(hydroxymethyl)-3-(pyridin-4-yl)-6,7-dihydropyrazolo[1,5-a]pyrazin-5(4H)-yl]prop-2-en-1-one] | 0.409 nM | 1.42 nM | 17.4 nM | 108 nM | – | – | – | – | –
C=CC(=O)N1C(C)c2c(-c3ccncc3)c(-c3ccc(Cl)cc3F)nn2C[C@@H]1C (single isomer, unassigned; isomer 2) [Example 293] | 50.3 nM | 96 nM | – | 9980 nM | 380 nM | – | – | – | –
C=CC(=O)N1CCn2nc(-c3ccc(F)cc3)c(-c3ccncc3)c2C1 [Example 1, 1-[2-(4-fluorophenyl)-3-(pyridin-4-yl)-6,7-dihydropyrazolo[1,5-a]pyrazin-5(4H)-yl]prop-2-en-1-one] | 0.618 nM | 0.953 nM | 34.6 nM | 119 nM | – | 0.618 nM | 0.953 nM | 34.6 nM | 119 nM
C=CC(=O)N1CCn2nc(-c3ccc(Cl)cc3)c(-c3ccncc3)c2C1 [Example 3, 1-[2-(4-chlorophenyl)-3-(pyridin-4-yl)-6,7-dihydropyrazolo[1,5-a]pyrazin-5(4H)-yl]prop-2-en-1-one] | 0.139 nM | 0.324 nM | 13.2 nM | 108 nM | – | 0.139 nM | 0.324 nM | 13.2 nM | 108 nM
C=CC(=O)N1CCn2nc(-c3cccc(OC)c3)c(-c3ccncc3)c2C1 [Example 5, 1-[2-(3-methoxyphenyl)-3-(pyridin-4-yl)-6,7-dihydropyrazolo[1,5-a]pyrazin-5(4H)-yl]prop-2-en-1-one] | 2.19 nM | 1.04 nM | 80.5 nM | 114 nM | – | 2.19 nM | 1.04 nM | 80.5 nM | 114 nM
CC(C)N(C)C/C=C/C(=O)N1CCn2nc(-c3ccc(F)cc3)c(-c3ccnc(NC(=O)C4CC4)c3)c2C1 [Example 6, N-{4-[2-(4-fluorophenyl)-5-{(2E)-4-[methyl(propan-2-yl)amino]but-2-enoyl}-4,5,6,7-tetrahydropyrazolo[1,5-a]pyrazin-3-yl]pyridin-2-yl}cyclopropanecarboxamide] | 0.326 nM | 0.407 nM | 22.3 nM | 207 nM | – | 0.326 nM | 0.407 nM | 22.3 nM | 207 nM
C=CC(=O)N1CCn2nc(-c3ccc(F)cc3)c(-c3ccnc(NC(=O)C4CC4)c3)c2C1 [Example 7, N-{4-[2-(4-fluorophenyl)-5-(prop-2-enoyl)-4,5,6,7-tetrahydropyrazolo[1,5-a]pyrazin-3-yl]pyridin-2-yl}cyclopropanecarboxamide] | 0.209 nM | 0.408 nM | 12.4 nM | 60.1 nM | – | 0.209 nM | 0.408 nM | 12.4 nM | 60.1 nM
C=CC(=O)N1CCn2nc(-c3ccc(F)cc3)c(-c3ccnc(N)c3)c2C1 [Example 10, 1-[3-(2-aminopyridin-4-yl)-2-(4-fluorophenyl)-6,7-dihydropyrazolo[1,5-a]pyrazin-5(4H)-yl]prop-2-en-1-one] | 0.849 nM | 2.26 nM | 46.5 nM | 346 nM | – | 0.849 nM | 2.26 nM | 46.5 nM | 346 nM
C=CS(=O)(=O)N1CCn2nc(-c3ccc(F)cc3)c(-c3ccncc3)c2C1 [Example 14, 5-(ethenesulfonyl)-2-(4-fluorophenyl)-3-(pyridin-4-yl)-4,5,6,7-tetrahydropyrazolo[1,5-a]pyrazine] | 0.406 nM | 0.867 nM | 760 nM | 983 nM | – | 0.406 nM | 0.867 nM | 760 nM | 983 nM
CC(C)N(C)C/C=C/C(=O)N1CCn2nc(-c3ccc(F)cc3)c(-c3ccncc3)c2C1 [Example 18, (2E)-1-[2-(4-fluorophenyl)-3-(pyridin-4-yl)-6,7-dihydropyrazolo[1,5-a]pyrazin-5(4H)-yl]-4-[methyl(propan-2-yl)amino]but-2-en-1-one] | 0.451 nM | 1.76 nM | 143 nM | 9980 nM | – | 0.451 nM | 1.76 nM | 143 nM | 0.217 nM
C=CC(=O)N1CCn2nc(-c3ccc(Cl)c(F)c3)c(-c3ccncc3)c2C1 [Example 36, 1-[2-(4-chloro-3-fluorophenyl)-3-(pyridin-4-yl)-6,7-dihydropyrazolo[1,5-a]pyrazin-5(4H)-yl]prop-2-en-1-one] | 0.321 nM | 1.13 nM | 17.9 nM | 126 nM | – | – | – | – | –
C=CC(=O)N1CCn2nc(-c3ccc(Cl)cc3F)c(-c3ccncc3)c2C1 [Example 37, 1-[2-(4-chloro-2-fluorophenyl)-3-(pyridin-4-yl)-6,7-dihydropyrazolo[1,5-a]pyrazin-5(4H)-yl]prop-2-en-1-one] | 0.258 nM | 0.658 nM | 7.14 nM | 104 nM | – | – | – | – | –
C=CC(=O)N1CCn2nc(-c3ccc(Cl)c(Cl)c3)c(-c3ccncc3)c2C1 [Example 40, 1-[2-(3,4-dichlorophenyl)-3-(pyridin-4-yl)-6,7-dihydropyrazolo[1,5-a]pyrazin-5(4H)-yl]prop-2-en-1-one] | 0.0982 nM | 0.148 nM | 14.9 nM | 56 nM | – | – | – | – | –
CN(C)CC#CC(=O)N1CCn2nc(-c3ccc(F)cc3)c(-c3ccncc3)c2C1 [Example 65, 4-(dimethylamino)-1-[2-(4-fluorophenyl)-3-(pyridin-4-yl)-6,7-dihydropyrazolo[1,5-a]pyrazin-5(4H)-yl]but-2-yn-1-one] | 0.382 nM | 0.952 nM | 15.3 nM | 1010 nM | – | – | – | – | –
C=CC(=O)N1CCn2nc(-c3ccc4sccc4c3)c(-c3ccncc3)c2C1 [Example 192, 1-[2-(1-benzothiophen-5-yl)-3-(pyridin-4-yl)-6,7-dihydropyrazolo[1,5-a]pyrazin-5(4H)-yl]prop-2-en-1-one] | < 0.0725 nM | 0.0916 nM | 148 nM | 39.7 nM | – | – | – | – | –
C=CC(=O)N1CCn2nc(-c3ccc4cc[nH]c4c3)c(-c3ccncc3)c2C1 [Example 195, 1-[2-(1H-indol-6-yl)-3-(pyridin-4-yl)-6,7-dihydropyrazolo[1,5-a]pyrazin-5(4H)-yl]prop-2-en-1-one] | 0.0825 nM | 0.219 nM | 8.9 nM | 43.3 nM | – | – | – | – | –
Cc1c[nH]c2nccc(-c3c(-c4cccc(C#N)c4)nn4c3CN(C(=O)/C=C/CN(C)C)[C@H](C)C4)c12 [Example 289, 3-[(6R)-5-[(2E)-4-(dimethylamino)but-2-enoyl]-6-methyl-3-(3-methyl-1H-pyrrolo[2,3-b]pyridin-4-yl)-4,5,6,7-tetrahydropyrazolo[1,5-a]pyrazin-2-yl]benzonitrile] | 6740 nM | 348 nM | 910 nM | – | – | – | – | – | –
